# Tests used:
# Type in all cases: cell-based
# L.oakridgensis = experiment: microbe, parasite or virus in culture; conditions: pH 6; 48 hours; 37°C
# L.pneumophila gr. 8 = experiment: microbe, parasite or virus in culture; conditions: Legionella pneumophila, GR.8, 48 h, pH 6
# Myxococcus xanthus = experiment: MIC determination on casitone agar (Example III); conditions: 96 h, pH 7.6, casitone agar pH 7,6, four days, 30°C
# L.dumoffii = experiment: microbe, parasite or virus in culture; conditions: pH 6; 48 hours; 37°C
# L.pneumophila gr. 5 = experiment: microbe, parasite or virus in culture; conditions: Legionella pneumophila, GR.5, 48 h, pH 6
# L.pneumophila gr. 3 = experiment: microbe, parasite or virus in culture; conditions: Legionella pneumophila, GR.3, 48 h, pH 6
# L.pneumophila gr.10 = experiment: microbe, parasite or virus in culture; conditions: Legionella pneumophila, GR.10, 48 h, pH 6
# L.micdadei = experiment: microbe, parasite or virus in culture; conditions: pH 6; 48 hours; 37°C
# L.longbeachae gr. 1 = experiment: microbe, parasite or virus in culture; conditions: pH 6; 48 hours; 37°C
# L.pneumophila gr. 4 = experiment: microbe, parasite or virus in culture; conditions: Legionella pneumophila, GR.4, 48 h, pH 6
# L.wadsworthii = experiment: microbe, parasite or virus in culture; conditions: pH 6; 48 hours; 37°C
# L.bozemanii gr. 1 = experiment: microbe, parasite or virus in culture; conditions: pH 6; 48 hours; 37°C
# L.pneumophila gr. 2 = experiment: microbe, parasite or virus in culture; conditions: Legionella pneumophila, GR.2, 48 h, pH 6
# L.gormanii = experiment: MIC determination on buffered charcoal yeast-extract agar (Example I); conditions: Fluoribacter gormanii, pH 6,9, 48 hours, 37°C
# L.pneumophila gr. 9 = experiment: microbe, parasite or virus in culture; conditions: Legionella pneumophila, GR.9, 48 h, pH 6
# L.pneumophila gr. 6 = experiment: microbe, parasite or virus in culture; conditions: Legionella pneumophila, GR.6, 48 h, pH 6
# L.longbeachae gr. 2 = experiment: microbe, parasite or virus in culture; conditions: pH 6; 48 hours; 37°C
# L.jordanis = experiment: microbe, parasite or virus in culture; conditions: pH 6; 48 hours; 37°C
# L.pneumophila gr. 7 = experiment: microbe, parasite or virus in culture; conditions: Legionella pneumophila, GR.7, 48 h, pH 6
# [1] = tested on: Legionella pneumophila gr. 5; experiment: microbe, parasite or virus in culture; conditions: GR.5, 96 h, pH 6
# [2] = tested on: Legionella pneumophila gr. 1; experiment: microbe, parasite or virus in culture; conditions: GR.1, 96 h, pH 6
SMILES,MIC (L.oakridgensis),MIC (L.pneumophila gr. 8),MIC (Myxococcus xanthus),MIC (L.dumoffii),MIC (L.pneumophila gr. 5),MIC (L.pneumophila gr. 3),MIC (L.pneumophila gr.10),MIC (L.micdadei),MIC (L.longbeachae gr. 1),MIC (L.pneumophila gr. 4),MIC (L.wadsworthii),MIC (L.bozemanii gr. 1),MIC (L.pneumophila gr. 2),MIC (L.gormanii),MIC (L.pneumophila gr. 9),MIC (L.pneumophila gr. 6),MIC (L.longbeachae gr. 2),MIC (L.jordanis),MIC (L.pneumophila gr. 7),MIC [1],other results
Clc1ccccc1C(c1ccccc1)(c1ccccc1)n1ccnc1 [clotrimazole],8 µg/mL,16 µg/mL,2 µg/mL,16 µg/mL,16 µg/mL,8 µg/mL,16 µg/mL,16 µg/mL,16 µg/mL,16 µg/mL,8 µg/mL,8 µg/mL,16 µg/mL,8 µg/mL,16 µg/mL,16 µg/mL,16 µg/mL,16 µg/mL,16 µg/mL,,
Clc1ccccc1C(c1ccc(-c2ccccc2)cc1)n1ccnc1 (stereo not drawn) [lombazole],64 µg/mL,128 µg/mL,2 µg/mL,64 µg/mL,64 µg/mL,128 µg/mL,64 µg/mL,64 µg/mL,64 µg/mL,128 µg/mL,32 µg/mL,128 µg/mL,128 µg/mL,64 µg/mL,128 µg/mL,64 µg/mL,64 µg/mL,64 µg/mL,128 µg/mL,,
Clc1ccc(COC(Cn2ccnc2)c2ccc(Cl)cc2Cl)c(Cl)c1 (stereo not drawn) [miconazole],64 µg/mL,128 µg/mL,2 µg/mL,128 µg/mL,128 µg/mL,128 µg/mL,128 µg/mL,128 µg/mL,128 µg/mL,128 µg/mL,128 µg/mL,128 µg/mL,128 µg/mL,128 µg/mL,128 µg/mL,128 µg/mL,128 µg/mL,128 µg/mL,128 µg/mL,,
OC(c1ccc(Cl)cc1)(c1cncnc1)c1ccccc1Cl (stereo not drawn) [fenarimol],,,,,,,,,,,,,,,,,,,,100 µg/mL,MIC [2]: 100 µg/mL
c1ccc(-c2ccc(C(c3ccccc3)n3ccnc3)cc2)cc1 (stereo not drawn) [bifonazole],64 µg/mL,128 µg/mL,,64 µg/mL,64 µg/mL,128 µg/mL,128 µg/mL,64 µg/mL,64 µg/mL,128 µg/mL,32 µg/mL,128 µg/mL,128 µg/mL,128 µg/mL,128 µg/mL,64 µg/mL,64 µg/mL,64 µg/mL,128 µg/mL,,
CCCCCCCCCCCCCN1CC(C)OC(C)C1 (stereo not drawn) [tridemorph],,,,,,,,,,,,,,,,,,,,50 µg/mL,MIC [2]: 100 µg/mL
CCC1COC(Cn2cncn2)(c2ccc(Cl)cc2Cl)O1 (stereo not drawn) [etaconazole],,,,,,,,,,,,,,,,,,,,> 100 µg/mL,MIC [2]: > 100 µg/mL

# — patent EP0228113A2 (priority 1985, dated 1987)
